Assay results from publication PMC10552397 (Cell Communication and Signaling : CCS, 2023).

Key:
JUN = experiment: TPP-TR/RTSA, JUN; assay type: binding, Homo sapiens; conditions: 100 nM vs DMSO, 6 h, HeLa wt
Protocol: (§1) TPP was performed essentially as described, but with major modifications to the TMT labeling sets and statistical data analysis for TPP-TR.
(§2) Adherent cells were washed in the dish once with DPBS and harvested by Trypsin–EDTA (0.25%, Thermo Fisher Scientific, Waltham, MA, USA, #25,200,056) treatment. […]
(§3) After temperature treatment, samples were supplemented with lysis buffer (final concentrations: 0.36 U/µL benzonase, 1.5 mM MgCl2, 1 mM Na3VO4, 10 mM NaF, 2.5 mM Na4P2O7, 0.8% w/v NP-40) for 1 h on ice. […] The total protein concentration of the resulting cell extracts containing the fraction of soluble, non-denatured proteins was determined (Pierce 660 nm Protein Assay, BSA as standard). […] The two (37 °C or 50 °C) x ten (concentrations) x three (replicates) = 60 TPP-CCR samples and two (treatment and control) x ten (temperatures) x three (replicates) = 60 TPP-TR samples were analyzed by LC–MS/MS. GRASP55 was additionally quantified from the TPP-TR samples by immunoblotting as described in the respective section.
(§4) For TPP-CCR, SP3 was performed as described with slight modifications to the original protocol using on average 5 µg total protein per sample and resulting in theoretically 5 µg peptides in 22 µL 50 mM triethylammonium bicarbonate per sample. […] This volume was calculated such that the lowest two temperature samples (36.5 °C and 41.2 °C) contained 10 µg total protein on average. […]

HeLa wt cells = experiment: Transmission electron microscopy of Golgi apparatus, HeLa wt; assay type: cell-based; conditions: 24 h
Protocol: (§5) HeLa wt and HeLa GRASP55 KO cells were seeded into 10 cm dishes. […] After treatment, cells were washed with Dulbecco´s phosphate-buffered saline (DPBS, Thermo Fisher Scientific, Waltham, MA, USA, #14,190,250) and then fixed using 2.5% glutaraldehyde and 4% paraformaldehyde in 0.1 M sodium cacodylate, pH 7.4 overnight at 4 °C. Then, cells were harvested with a cell scraper and centrifuged at 4,000 × g for 5 min. Cell pellets were washed twice with 0.1 M sodium cacodylate buffer, pH 7.2, then heated to 40 °C and embedded into 3% low melting agarose. The agarose was dissolved at 40 °C in a water bath and after aspiration of the supernatant a volume of approximately 10 µL was left, which was resuspended in agarose. After centrifugation at approximately 4,000 x g for 2 min, the samples were covered with 1% OsO4 in 0.1 M sodium cacodylate buffer for 60 min at RT. After washing two times with sodium cacodylate buffer for 10 min and twice with 70% EtOH for 15 min at RT, block contrast was applied using 1% uranyl acetate/1% phosphorotungstic acid in 70% EtOH (freshly prepared and filtered) for 1 h at RT. The samples were dehydrated in a graded ethanol series (90% EtOH, 96% EtOH, 100% EtOH) and embedded in SPURR epoxy resin (Serva, Heidelberg, Germany, #21,050). After polymerization at 70 °C for 24 h, 70 nm ultrathin sections were cut using an Ultracut EM UC7 (Leica, Wetzlar, Germany). […]

HeLa GRASP55 KO cells = experiment: Transmission electron microscopy of Golgi apparatus, HeLa GRASP55 KO; assay type: cell-based; conditions: 100 nM, 24 h, HeLa GRASP55 KO (also wt)
Protocol: as §5

GRASP55 = GRASP55 (Homo sapiens, UniProt Q9H8Y8); experiment: Thermal proteome profiling temperature range (TPP-TR/RTSA), GRASP55; assay type: binding; design: endogenous in cells; host or cells: HeLa wt cells; conditions: 100 nM, 6 h
Protocol: as §1, §2, §3, §4

CCCCCC1=C/C(=C/c2[nH]c(-c3ccc[nH]3)cc2OC)N=C1C [Prodigiosin, prodigiosin]
Mean_dTm (JUN): -0.6723
Golgi apparatus morphology (TEM) (HeLa wt cells; 10 nM): cisternae number and length decreased and cisternae were more voluminous
Golgi apparatus morphology (TEM) (HeLa wt cells; 100 nM): distinct swelling of the Golgi apparatus
Golgi apparatus morphology (TEM) (HeLa GRASP55 KO cells): Severe structural changes of the Golgi apparatus
mean melting point difference of GRASP55 (TPP-TR) (GRASP55; HeLa wt, vs DMSO): 2.1 °C
effect on GRASP55 abundance (GRASP55; intensities at 36.5 °C): No effect
